Non-standard residues stand in square brackets, D forms with d. Residues, ends and D or L forms follow the SMILES beside them. Groups on a side chain read outwards from the residue. *: point of attachment. dAla(benzothien-2-yl) = N[C@H](Cc1cc2ccccc2s1)C(=O)O; Shikimoyl = O=C(C1=C[C@@H](O)[C@@H](O)[C@H](O)C1)*; dPhe(4-Cl) = N[C@H](Cc1ccc(Cl)cc1)C(=O)O; d1Nal = N[C@H](Cc1cccc2ccccc12)C(=O)O; d2Nal = N[C@H](Cc1ccc2ccccc2c1)C(=O)O; Lys(iPr) = CC(C)NCCCC[C@H](N)C(=O)O; NMeY = CN[C@@H](Cc1ccc(O)cc1)C(=O)O; hArg = N=C(N)NCCCC[C@H](N)C(=O)O; d3Pal = N[C@H](Cc1cccnc1)C(=O)O; Isonicotinoyl = O=C(c1ccncc1)*; Nicotinoyl = O=C(c1cccnc1)*; 2Furoyl = O=C(c1ccco1)*; azaGly = NNC(=O)O; βAla = NCCC(=O)O; Sar = CNCC(=O)O

A word on the Kb: it is the equilibrium dissociation constant of an antagonist, usually derived from a functional assay.

For the assay, the target named is T1, LHRH (Rattus norvegicus, UniProt P30969).
T1 construct: endogenous in cells; host or cells: rat pituitary cells (own knowledge of the cited Haviv 1989 method)
T1 sequence (P30969 1-327): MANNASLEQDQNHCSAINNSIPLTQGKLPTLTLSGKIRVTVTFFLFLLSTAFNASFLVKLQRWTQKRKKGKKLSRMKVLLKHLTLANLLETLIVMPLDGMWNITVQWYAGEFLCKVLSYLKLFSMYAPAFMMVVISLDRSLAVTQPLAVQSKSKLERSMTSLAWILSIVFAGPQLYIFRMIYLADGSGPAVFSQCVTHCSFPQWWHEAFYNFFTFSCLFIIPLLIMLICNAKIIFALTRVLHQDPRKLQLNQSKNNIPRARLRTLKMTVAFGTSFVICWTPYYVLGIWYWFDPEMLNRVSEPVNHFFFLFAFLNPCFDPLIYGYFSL
The experiment in a line: in vitro test for LHRH antagonist potency (pA2). The assay is classed as cell-based. The conditions noted are these: negative logarithm of the antagonist concentration required to shift the response curve produced by the agonist leuprolide to two-fold higher concentration. Summed up: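 Rat LHRH receptor in vitro functional test; pA2 = negative log of the antagonist concentration shifting the leuprolide agonist response curve to two-fold higher concentration.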

On to `CC(C)C[C@H](NC(=O)[C@@H](CCCCNC(=O)C1=C[C@@H](O)[C@@H](O)[C@H](O)C1)NC(=O)[C@H](Cc1ccc(O)cc1)N(C)C(=O)[C@H](CO)NC(=O)[C@@H](Cc1cccnc1)NC(=O)[C@@H](Cc1ccc(Cl)cc1)NC(=O)[C@@H](Cc1ccc2ccccc2c1)NC(=O)CCNC(=O)c1cccnc1)C(=O)N[C@@H](CCCCNC(=N)N)C(=O)N1CCC[C@H]1C(=O)N[C@H](C)C(N)=O` [Example 28, N-Nicotinyl-3Aminopropionyl-D2Nal-D4ClPhe-D3Pal-Ser-NMeTyr-DLys(Shik)-Leu-Harg-Pro-DAlaNH2] ({Nicotinoyl-βAla}-[d2Nal][dPhe(4-Cl)][d3Pal]S[NMeY][dK](Shikimoyl)L[hArg]P[dA]-NH2), for which the Kb was 0.00977 nM. The figure for `CC(C)C[C@H](NC(=O)[C@@H](CCCCNC(=O)CNC(=O)c1cccnc1)NC(=O)[C@H](Cc1ccc(O)cc1)N(C)C(=O)[C@H](CO)NC(=O)[C@@H](Cc1cccnc1)NC(=O)[C@@H](Cc1ccc(Cl)cc1)NC(=O)[C@@H](Cc1ccc2ccccc2c1)NC(=O)C1=C[C@@H](O)[C@@H](O)[C@H](O)C1)C(=O)N[C@@H](CCCCNC(C)C)C(=O)N1CCC[C@H]1C(=O)N[C@H](C)C(N)=O` [Example 29, N-Shikimyl-D2Nal-D4ClPhe-D3Pal-Ser-NMeTyr-DLys(GlyNic)-Leu-Lys(Isp)-Pro-DAlaNH2] (Shikimoyl-[d2Nal][dPhe(4-Cl)][d3Pal]S[NMeY][dK]([Gly-Nicotinoyl])L[Lys(iPr)]P[dA]-NH2) is 0.0257 nM; for `CC(C)C[C@H](NC(=O)[C@@H](CCCCNC(=O)NNC(=O)c1cccnc1)NC(=O)[C@H](Cc1ccc(O)cc1)N(C)C(=O)[C@H](CO)NC(=O)[C@@H](Cc1cccnc1)NC(=O)[C@@H](Cc1ccc(Cl)cc1)NC(=O)[C@@H](Cc1ccc2ccccc2c1)NC(=O)C1=C[C@@H](O)[C@@H](O)[C@H](O)C1)C(=O)N[C@@H](CCCCNC(C)C)C(=O)N1CCC[C@H]1C(=O)N[C@H](C)C(N)=O` [Example 30b, N-Shik-D2Nal-D4ClPhe-D3Pal-Ser-NMeTyr-DLys(Azagly-Nic)-Leu-Lys(Isp)-Pro-DAlaNH2] (Shikimoyl-[d2Nal][dPhe(4-Cl)][d3Pal]S[NMeY][dK]([azaGly-Nicotinoyl])L[Lys(iPr)]P[dA]-NH2) it is 0.0295 nM.

For `CC(C)C[C@H](NC(=O)[C@@H](CCCCNC(=O)NNC(=O)c1ccco1)NC(=O)[C@H](Cc1ccc(O)cc1)N(C)C(=O)[C@H](CO)NC(=O)[C@@H](Cc1cccnc1)NC(=O)[C@@H](Cc1ccc(Cl)cc1)NC(=O)[C@@H](Cc1ccc2ccccc2c1)NC(=O)C1=C[C@@H](O)[C@@H](O)[C@H](O)C1)C(=O)N[C@@H](CCCCNC(C)C)C(=O)N1CCC[C@H]1C(=O)N[C@H](C)C(N)=O` [Example 30c, N-Shik-D2Nal-D4ClPhe-D3Pal-Ser-NMeTyr-DLys(Azagly-2Fur)-Leu-Lys(Isp)-Pro-DAlaNH2] (Shikimoyl-[d2Nal][dPhe(4-Cl)][d3Pal]S[NMeY][dK]([azaGly-2Furoyl])L[Lys(iPr)]P[dA]-NH2), the antagonist dissociation constant (Kb) is 0.038 nM. The figure for `CC(C)C[C@H](NC(=O)[C@@H](CCCCNC(=O)NNC(=O)c1cccnc1)NC(=O)[C@H](Cc1ccc(O)cc1)N(C)C(=O)[C@H](CO)NC(=O)[C@@H](Cc1cccnc1)NC(=O)[C@@H](Cc1ccc(Cl)cc1)NC(=O)[C@@H](Cc1ccc2ccccc2c1)NC(=O)NNC(=O)c1cccnc1)C(=O)N[C@@H](CCCCNC(C)C)C(=O)N1CCC[C@H]1C(=O)N[C@H](C)C(N)=O` [Example 31, N-Nicotinyl-Azagly-D2Nal-D4ClPhe-D3Pal-Ser-NMeTyr-DLys(Azagly-Nic)-Leu-Lys(Isp)-Pro-DAlaNH2] (Nicotinoyl-[azaGly][d2Nal][dPhe(4-Cl)][d3Pal]S[NMeY][dK]([azaGly-Nicotinoyl])L[Lys(iPr)]P[dA]-NH2) is 0.0195 nM. The value for `CC(C)C[C@H](NC(=O)[C@@H](CCCCNC(=O)c1cccnc1)NC(=O)[C@H](Cc1ccc(O)cc1)N(C)C(=O)[C@H](CO)NC(=O)[C@@H](Cc1cc2ccccc2s1)NC(=O)[C@@H](Cc1ccc(Cl)cc1)NC(=O)NNC(=O)c1cccnc1)C(=O)N[C@@H](CCCCNC(C)C)C(=O)N1CCC[C@H]1C(=O)N[C@H](C)C(N)=O` [Example 32, N-Nicotinyl-Azagly-D4ClPhe-DBal-Ser-NMeTyr-DLys(Nic)-Leu-Lys(Isp)-Pro-DAlaNH2] (Nicotinoyl-[azaGly][dPhe(4-Cl)][dAla(benzothien-2-yl)]S[NMeY][dK](Nicotinoyl)L[Lys(iPr)]P[dA]-NH2) was 0.0141 nM. For the molecule `CC(C)C[C@H](NC(=O)[C@@H](CCCCNC(=O)c1cccnc1)NC(=O)[C@H](Cc1ccc(O)cc1)N(C)C(=O)[C@H](CO)NC(=O)[C@@H](Cc1cc2ccccc2s1)NC(=O)[C@@H](Cc1ccc(Cl)cc1)NC(=O)NNC(=O)c1ccco1)C(=O)N[C@@H](CCCCNC(C)C)C(=O)N1CCC[C@H]1C(=O)N[C@H](C)C(N)=O` [Example 33a, N-(2-Furoyl)-Azagly-D4ClPhe-DBal-Ser-NMeTyr-DLys(Nic)-Leu-Lys(Isp)-Pro-DAlaNH2] (2Furoyl-[azaGly][dPhe(4-Cl)][dAla(benzothien-2-yl)]S[NMeY][dK](Nicotinoyl)L[Lys(iPr)]P[dA]-NH2), the Kb is 0.00631 nM.

In the case of `CC(C)C[C@H](NC(=O)[C@@H](CCCCNC(=O)c1cccnc1)NC(=O)[C@H](Cc1ccc(O)cc1)N(C)C(=O)[C@H](CO)NC(=O)[C@@H](Cc1cc2ccccc2s1)NC(=O)[C@@H](Cc1ccc(Cl)cc1)NC(=O)NNC(=O)c1ccncc1)C(=O)N[C@@H](CCCCNC(C)C)C(=O)N1CCC[C@H]1C(=O)N[C@H](C)C(N)=O` [Example 33b, N-Isonicotinyl-Azagly-D4ClPhe-DBal-Ser-NMeTyr-DLys(Nic)-Leu-Lys(Isp)-Pro-DAlaNH2] (Isonicotinoyl-[azaGly][dPhe(4-Cl)][dAla(benzothien-2-yl)]S[NMeY][dK](Nicotinoyl)L[Lys(iPr)]P[dA]-NH2), the antagonist equilibrium constant (Kb) was 0.02 nM. Regarding `CC(C)C[C@H](NC(=O)[C@@H](CCCCNC(=O)c1cccnc1)NC(=O)[C@H](Cc1ccc(O)cc1)N(C)C(=O)[C@H](CO)NC(=O)[C@@H](Cc1cccc2ccccc12)NC(=O)[C@@H](Cc1ccc(Cl)cc1)NC(=O)NNC(=O)c1cccnc1)C(=O)N[C@@H](CCCCNC(C)C)C(=O)N1CCC[C@H]1C(=O)N[C@H](C)C(N)=O` [Example 33c, N-Nicotinyl-Azagly-D4ClPhe-D1Nal-Ser-NMeTyr-DLys(Nic)-Leu-Lys(Isp)-Pro-DAlaNH2] (Nicotinoyl-[azaGly][dPhe(4-Cl)][d1Nal]S[NMeY][dK](Nicotinoyl)L[Lys(iPr)]P[dA]-NH2), the Kb was 0.00501 nM.

With `CC(C)C[C@H](NC(=O)[C@@H](CCCCNC(=O)c1cccnc1)NC(=O)[C@H](Cc1ccc(O)cc1)N(C)C(=O)[C@H](CO)NC(=O)[C@@H](Cc1cccc2ccccc12)NC(=O)[C@@H](Cc1ccc(Cl)cc1)NC(=O)CN(C)C(=O)CNC(=O)c1cccnc1)C(=O)N[C@@H](CCCCNC(C)C)C(=O)N1CCC[C@H]1C(=O)N[C@H](C)C(N)=O` [Example 35a, Nic-Gly-Sar-D4ClPhe-D1Nal-Ser-NMeTyr-DLys(Nic)-Leu-Lys(Isp)-Pro-DAlaNH2] (Nicotinoyl-G[Sar][dPhe(4-Cl)][d1Nal]S[NMeY][dK](Nicotinoyl)L[Lys(iPr)]P[dA]-NH2), the Kb was 0.1 nM.

Turning to `CC(C)C[C@H](NC(=O)[C@@H](CCCCNC(=O)c1cccnc1)NC(=O)[C@H](Cc1ccc(O)cc1)N(C)C(=O)[C@H](CO)NC(=O)[C@@H](Cc1cc2ccccc2s1)NC(=O)[C@@H](Cc1ccc(Cl)cc1)NC(=O)CN(C)C(=O)CNC(=O)c1cccnc1)C(=O)N[C@@H](CCCCNC(C)C)C(=O)N1CCC[C@H]1C(=O)N[C@H](C)C(N)=O` [Example 35b, Nic-Gly-Sar-D4ClPhe-DBal-Ser-NMeTyr-DLys(Nic)-Leu-Lys(Isp)-Pro-DAlaNH2] (Nicotinoyl-G[Sar][dPhe(4-Cl)][dAla(benzothien-2-yl)]S[NMeY][dK](Nicotinoyl)L[Lys(iPr)]P[dA]-NH2), the Kb was 0.0794 nM. The value for `CC(C)C[C@H](NC(=O)[C@@H](CCCCNC(=O)c1cccnc1)NC(=O)[C@H](Cc1ccc(O)cc1)N(C)C(=O)[C@H](CO)NC(=O)[C@@H](Cc1cc2ccccc2s1)NC(=O)[C@@H](Cc1ccc(Cl)cc1)NC(=O)[C@@H](Cc1ccc2ccccc2c1)NC(=O)CCNC(=O)c1cccnc1)C(=O)N[C@@H](CCCCNC(C)C)C(=O)N1CCC[C@H]1C(=O)N[C@H](C)C(N)=O` [Example 36, N-Nicotinyl-3-Aminopropionyl-D2Nal-D4ClPhe-DBal-Ser-NMeTyr-DLys(N-epsilon-Nicotinyl) -Leu-Lys(N-epsilon-Isopropyl)-Pro-DAlaNH2] ({Nicotinoyl-βAla}-[d2Nal][dPhe(4-Cl)][dAla(benzothien-2-yl)]S[NMeY][dK](Nicotinoyl)L[Lys(iPr)]P[dA]-NH2) was 0.0224 nM; that for `CC(C)C[C@H](NC(=O)[C@@H](CCCCNC(=O)c1cccnc1)NC(=O)[C@H](Cc1ccc(O)cc1)N(C)C(=O)[C@H](CO)NC(=O)[C@@H](Cc1cccnc1)NC(=O)[C@@H](Cc1ccc(Cl)cc1)NC(=O)[C@@H](Cc1ccc2ccccc2c1)NC(=O)NNC(=O)c1ccco1)C(=O)N[C@@H](CCCCNC(C)C)C(=O)N1CCC[C@H]1C(=O)N[C@H](C)C(N)=O` [Example 37a, N-(2-Furoyl)-Azagly-D2Nal-D4ClPhe-D3Pal-Ser-NMeTyr-DLys(Nic)-Leu-Lys(Isp)- Pro-DAlaNH2] (2Furoyl-[azaGly][d2Nal][dPhe(4-Cl)][d3Pal]S[NMeY][dK](Nicotinoyl)L[Lys(iPr)]P[dA]-NH2) was 0.00631 nM.

The record behind these values is US5502035A, “N-terminus modified analogs of LHRH” (Tap Holdings Inc., priority 1994, dated 1996).
